Columns and labels:
[1] = target: T1, ErbB2-ECD (Homo sapiens, UniProt P04626); assay: SPR binding to immobilized ErbB2-ECD; conditions: result in words
T1 construct: Direct Immobilization of ErbB2-ECD
Experimental: Using a ProteOn XPR36 instrument, ErbB2-ECD was immobilized at 25° C. onto a GLC sensor chip surface (Bio-Rad), with HBS-P+ running buffer (10 mM HEPES, pH 7.4, 150 mM NaCl, 0.05% Tween 20). Standard amine coupling methodology described in Bio-Rad's amine coupling kit was utilized for this immobilization. Lane 1 was activated with a 50:50 mixture of EDC (0.5 mM) and sulfo-NHS (0.125 mM). ErbB2 protein was diluted to […] in 10 mM sodium acetate, pH 5.0 and injected over the activated surface channel. Any remaining activated sites were blocked with 1 M ethanolamine-HCl, pH 8.5.
All SPR binding experiments were performed at 25° C. using HBS-EP+/BSA (10 mM HEPES, pH 7.4, 150 mM NaCl, 3 mM EDTA, 0.05% Tween20, 0.1 mg/ml BSA) as the instrument running buffer (RB). Following immobilization procedures, various concentrations of anti-ErbB2 affibodies and their MMAE-dendrimer conjugates were injected at 60 μl/min over immobilized ErbB2 proteins and their association monitored for 90 sec. Running buffer was subsequently injected over bound Ab-ErbB2 complexes and dissociation monitored for up to 60 min. […] All binding measurements were performed in triplicate.
Collected experimental data were processed using Scrubber-Pro software (www.biologic.com.au). […]

[2] = tested on: MDA-MB-231/HER2 cells; assay: In vitro association study (flow cytometry, Cy5), MDA-MB-231/HER2; assay type: cell-based, human; conditions: for cellular association value (DFO/Cy5 BHA dendrimers; quantity not named, table stands under 'Percent of cellular association'): MDA-MB-231/HER2, 0.5 h
Experimental: (§1) MDA-MB-231, MDA-MB-231/HER2 (HER2 knock in) (as described above), or SKOV-3 cells were seeded in a 24-well plate (1×10^5 cells per well) in 500 μL of appropriate growth media with the addition of 10% (v/v) fetal bovine serum (FBS) and incubated with compound 36 or 41 at 3.33 nM, […] atmosphere. After incubation, non-binding/non-associating particles were removed from adherent cells by gently washing with DPBS three times (300 μL/well). Cells were removed from plates by treatment with TrypLE™ Express Enzyme (1×), no phenol red (150 μL/well) for 5-10 min at room temperature. The plates were then placed on ice. Cellular binding and association of sample were then determined through flow cytometry by the acquisition of the signal from Cy5.

[3] = tested on: MDA-MB-231 cells; assay: In vitro association study (flow cytometry, Cy5), MDA-MB-231; assay type: cell-based, human; conditions: for cellular association value (DFO/Cy5 BHA dendrimers; quantity not named, table stands under 'Percent of cellular association'): MDA-MB-231, 0.5 h
Experimental: as §1

[4] = tested on: MDA-MB-453 cells; assay: Cell association by flow cytometry (Cy5), MDA-MB-453; assay type: cell-based, human; conditions: for Mean Fluorescence Intensity (Cy5), MFI: MDA-MB-453, 1 hour on ice, triplicate wells; for binding to HER2-positive MDA-MB-453 cells: result in words
Experimental: The HER2-expressing human metastatic carcinoma cell line MDA-MB-453 (ATCC HTB-131) and the HER2-negative epithelial adenocarcinoma cell line MDA-MB-231 (ATCC HTB-26) were maintained in Dulbecco's Modified Eagle's Medium (DMEM) containing 10% FBS and penicillin-streptomycin (100 U/mL) at 37° C. under a 5% CO2 humidified atmosphere and subcultured prior to confluence using trypsin. Human adenocarcinoma ovary cell line SKOV-3 (ATCC® HTB-77) cells were maintained in RPMI media with the addition of 10% (v/v) FBS and penicillin-streptomycin (100 U/mL) at 37° C. in a 5% CO2 humidified atmosphere and subcultured prior to confluence.
For measurement of cell association by flow cytometry, cells in suspension were added at 1×10^5 cells per well to a 96 well assay plate. Following incubation with nanobody-dendrimer or unconjugated dendrimer for 1 hour on ice, cells were washed three times with 200 ul of DMEM containing 10% FBS to remove unbound dendrimer. Cells were then resuspended in chilled Fluorobrite media supplemented with 10% FBS and Cy5 fluorescence measured using 642 nm excitation and emission collected between 661-691 nm. To measure internalisation kinetics, nanobody-dendrimer was incubated with cells for 24, 4, 1, 0.5 and 0.1 hours at 37° C. before unbound nanobody-dendrimer was removed by washing and analysed by flow cytometry.

[5] = tested on: SKOV-3 cells; assay: In vitro association study of G5 cabazitaxel dendrimers, SKOV-3; assay type: cell-based, human; conditions: SKOV-3, 3.33 nM
Experimental: (§2) MDA-MB-231, MDA-MB-231/HER2 (HER2 knock in), or SKOV-3 cells were seeded in a 24-well plate (1×10^5 cells per well) in 500 μL of appropriate growth media with the addition of 10% (v/v) fetal bovine serum (FBS) and 1% (v/v) penicillin-streptomycin, and incubated with compound 70 (G5, PEG1000, CTX) or 78 (2D3, G5, PEG1000, CTX) at 3.33 nM, with incubation time varied from 1 to 24 h at 37° C. in a 5% CO2 humidified atmosphere. After incubation, non-binding/non-associating particles were removed from adherent cells by gently washing with DPBS three times (300 μL/well). Cells were removed from plates by treatment with TrypLE™ Express Enzyme (1×), no phenol red (150 μL/well) for 5-10 min at room temperature. The plates were then placed on ice. Cellular binding and association of sample were then determined through flow cytometry by the acquisition of the signal from Cy5.

[6] = tested on: MDA-MB-231 cells; assay: In vitro association study of G5 cabazitaxel dendrimers, MDA-MB-231; assay type: cell-based, human; conditions: MDA-MB-231, 3.33 nM
Experimental: as §2

[7] = tested on: MDA-MB-231/HER2 (HER2 knock in) cells; assay: In vitro association study of G5 cabazitaxel dendrimers, MDA-MB-231/HER2; assay type: cell-based, human; conditions: MDA-MB-231/HER2, 3.33 nM
Experimental: as §2

Substance | Mean fluorescence intensity ([2]; MDA-MB-231/HER2, 1 h) | Mean fluorescence intensity ([2]; MDA-MB-231/HER2, 2 h) | Mean fluorescence intensity ([2]; MDA-MB-231/HER2, 4 h) | Mean fluorescence intensity ([2]; MDA-MB-231/HER2, 24 h) | Mean fluorescence intensity ([3]; MDA-MB-231, 1 h) | Mean fluorescence intensity ([3]; MDA-MB-231, 2 h) | Mean fluorescence intensity ([3]; MDA-MB-231, 4 h) | Mean fluorescence intensity ([3]; MDA-MB-231, 24 h) | Mean Fluorescence Intensity (Cy5), MFI [4] | binding to HER2-positive MDA-MB-453 cells [4] | cellular association value (DFO/Cy5 BHA dendrimers; quantity not named, table stands under 'Percent of cellular association') [2] | cellular association value (DFO/Cy5 BHA dendrimers; quantity not named, table stands under 'Percent of cellular association') [3] | also measured
Azido-PEG24CO—[N(PN)2[Lys]8[(α-NH-Glu-Val-Cit-PAB-MMAE)8(ε-NH-COPEG2000)8] [Compound 21] |  |  |  |  |  |  |  |  |  |  |  |  | binding to ErbB2 [1]: No binding
(MeTzPh)PEG4CO-NHPEG24CO—[N(PN)2][Lys]32[((α-NHCy5)1(α-NHAc)31)(ε-NH-COPEG1100)32] [Compound 39] | 257.5 ± 12.0 | 249.0 ± 15.6 | 207.0 ± 2.8 | 207.5 ± 40.3 | 252.0 ± 6.0 | 249.0 ± 8.7 | 247.3 ± 7.2 | 196.3 ± 3.1 | 4.349 ± 0.08 | did not bind |  |  | Percent of cellular association ([2]; MDA-MB-231/HER2, 4 h): 0.47 ± 0.21%; Percent of cellular association ([3]; MDA-MB-231, 1 h): 0.97 ± 0.12%
BHALys[Lys]2[Lys]4[Lys]8[Lys]16[((α-NH-COPEG24NH-COPEG4(PhTzMe)/TCO-PEG3NH-COPEG24NH-Glu-DBCO)1(α-Lys(α-NHCy5)(ε-NHDFO))1(α-NH2)14)(ε-NH-COPEG1000)16] [Compound 84] |  |  |  |  |  |  |  |  |  |  | 16.7 ± 2.48 | 20.23 ± 0.63 | 
BHALys[Lys]2[Lys]4[Lys]8[Lys]16[Lys]32[((α-NH-COPEG24NH-COPEG4(PhTzMe)/TCO-PEG3NH-COPEG24NH-Glu-DBCO)1(α-Lys(α-NHCy5)(ε-NHDFO))1(α-NH2)30)(ε-NH-COPEG1000)32] [Compound 85] |  |  |  |  |  |  |  |  |  |  | 25.6 ± 0.43 | 33.23 ± 2.2 | 
(MeTzPh)PEG4CO-NHPEG24CO—[N(PN)2][Lys]8[((α-NHCy5)1(α-NHAc)7)(ε-NH-COPEG1100)8] [Compound 37] | 293.0 ± 8.5 | 268.0 ± 11.3 | 241.5 ± 17.7 | 206.0 ± 2.8 | 258.3 ± 19.6 | 256.7 ± 24.8 | 221.3 ± 3.5 | 215.3 ± 4.9 | 3.097 ± 0.01 | did not bind |  |  | Percent of cellular association ([2]; MDA-MB-231/HER2, 1 h): 2.47 ± 0.81%; Percent of cellular association ([3]; MDA-MB-231, 1 h): 1.10 ± 0.35%; Percent of cellular association ([3]; MDA-MB-231, 2 h): 1.23 ± 0.47%
BHALys[Lys]2[Lys]4[((α-NH-COPEG24NH-COPEG4(PhTzMe/TCO-PEG3NH-COPEG24NH-Glu-DBCO))1(α-Lys(α-NHCy5)(ε-NHDFO))1(α-NH2)2)(ε-NH-COPEG1000)4] [Compound 82] |  |  |  |  |  |  |  |  |  |  | 14.83 ± 1.60 | 23.3 ± 3.98 | 
Azido-PEG24CO—[N(PN)2][Lys]8[(α-NH-Glu-Val-Cit-PAB-MMAE)8(ε-NH-COPEG1100)8] [Compound 20] |  |  |  |  |  |  |  |  |  |  |  |  | binding to ErbB2 [1]: No binding
BHA[Lys]32[((α-NH-COPEG24NH-COPEG4(PhMeTz))1-4(α-NHCy5)1(α-NH-COPEG9-Val-Ala-PAB-P-Trigger-NMeCO-CTX)22) (α-NH2)5-8(ε-NH-COPEG1100)32] [Compound 70] |  |  |  |  |  |  |  |  |  |  |  |  | Mean fluorescence intensity (MFI) ([5]; 1 h): 1.00 ± 0.29; Mean fluorescence intensity (MFI) ([5]; 3 h): 3.46 ± 0.69; Mean fluorescence intensity (MFI) ([5]; 6 h): 3.90 ± 0.10; Mean fluorescence intensity (MFI) ([5]; 24 h): 11.4±0.42; binding over 24 h ([5]; in words): minimal binding; Mean fluorescence intensity (MFI) ([6]; 1 h): 1.00 ± 0.14; Mean fluorescence intensity (MFI) ([6]; 3 h): 4.10 ± 0.71; Mean fluorescence intensity (MFI) ([6]; 6 h): 5.65 ± 0.64; Mean fluorescence intensity (MFI) ([6]; 24 h): 13.4 ± 0.07; binding over 24 h ([6]; in words): minimal binding; Mean fluorescence intensity (MFI) ([7]; 1 h): 0.77 ± 0.06; Mean fluorescence intensity (MFI) ([7]; 3 h): 7.72 ± 4.17; Mean fluorescence intensity (MFI) ([7]; 6 h): 5.82 ± 0.07; Mean fluorescence intensity (MFI) ([7]; 24 h): 12.4±0.64; binding over 24 h ([7]; in words): minimal binding
(MeTzPh)PEG4CO-NHPEG24CO—[N(PN)2][Lys]16[((α-NHCy5)1(α-NHAc)15)(ε-NH-COPEG1100)16] [Compound 38] | 269.0 ± 19.8 | 225.0 ± 5.7 | 198.0 ± 2.8 | 175.5 ± 0.7 | 239.3 ± 1.2 | 230.7 ± 2.3 | 217.3 ± 3.2 | 195.7 ± 0.6 | 6.827 ± 0.07 | did not bind |  |  | Percent of cellular association ([2]; MDA-MB-231/HER2, 1 h): 0.90 ± 0.35%; Percent of cellular association ([2]; MDA-MB-231/HER2, 2 h): 0.50 ± 0.10%; Percent of cellular association ([2]; MDA-MB-231/HER2, 4 h): 0.50 ± 0.35%; Percent of cellular association ([2]; MDA-MB-231/HER2, 24 h): 0.37 ± 0.15%
BHALys[Lys]2[Lys]4[Lys]8[((α-NH-COPEG24NH-COPEG4(PhTzMe)/TCO-PEG3NH-COPEG24NH-Glu-DBCO)1(α-Lys(α-NHCy5)(ε-NHDFO))1(α-NH2)6)(ε-NH-COPEG1000)8] [Compound 83] |  |  |  |  |  |  |  |  |  |  | 43.23 ± 3.48 | 42.8 ± 2.78 | 
